Entries after “also recorded” stand apart in the source; their conditions may differ. No end group written: not given here.
Legend:
wild type mice = assay: cardiovascular response to intravenous infusion, wild type mice; assay type: in vivo
From the text: (§1) The cardiovascular responses to intravenous infusion of urocortin and sodium nitroprusside, a vasodilator, were examined in mice (wild type: n 5; mutant: n=3) anesthetized with isofluorine. The arterial catheter for blood pressure recording was fabricated from a sterile PE-10 tubing softened and pulled to an outer diameter of ˜0.4 mm. The femoral artery was exposed, and the arterial catheter filled with heparin saline (500 U/ml) was implanted and secured with surgical threads and tissue glue (Vetbond). […] A second catheter was then implanted in the external jugular vein for intravenous infusion of drugs. Drug infusion was performed […] following completion of the cannulation procedure. The venous catheter was connected to a drug-filled syringe. Infusion was completed within 0.5-1.0 min. Both wild type and mutants received an identical dose of urocortin (0.1 μg in 200 μl of 0.9% saline) and saline (as a control).
(§2) The doses used were determined from preliminary experiments with reference to data obtained from corresponding studies in Sprague Dawley rats (2). In order to verify that the lack of cardiovascular response to the urocortin injection in mutants was not attributed to the loss of ability of the mice to vasodilate, the mutant mice also received a second infusion of sodium nitroprusside (0.8 μg in 100 μl of 0.9% saline) following recovery of arterial pressure from the urocortin infusion. The mean arterial pressure (MAP) was determined from the blood pressure tracings.

CRFR2 = conditions: urocortin versus CRF; cited from earlier work
CRFR2 null mutant mice = assay: cardiovascular response to intravenous infusion, CRFR2 null mutant mice; assay type: in vivo; conditions: for arterial pressure response to urocortin: intravenous infusion
From the text: as §1, §2

mice = assay: hair growth over gel foam sponge implanted under shaved skin; assay type: in vivo; conditions: after five days
From the text: Small regions area of mice were shaved over of their skin and gel foam sponges impregnated with bFGF and urocortin, various growth factors, and CRF antagonist astressin were surgically implanted under the shaved skin. […] Therefore, urocortin and bFGF stimulate rapid hair growth.

| Substance | depressor response (change in arterial pressure) (wild type mice; control mice, anesthetized, urocortin 0.1 μg intravenous infusion) [mm Hg] | persistence of the reduction in arterial pressure (recording period) (wild type mice; control mice, urocortin 0.1 μg intravenous infusion) [min] | mean arteriole pressure response to intravenous urocortin (wild type mice; wild type animals) | affinity for CRFR2 relative to CRF (CRFR2) [fold] | arterial pressure response to urocortin (CRFR2 null mutant mice) | arterial pressure response to urocortin (CRFR2 null mutant mice; listed as UCN) | reduction in arterial pressure, only 1 mutant mouse, transient (CRFR2 null mutant mice; urocortin 0.1 μg intravenous, likely attributable to injection pressure) [mmHg] | hair growth in shaved area above implanted sponge (mice) |
| --- | --- | --- | --- | --- | --- | --- | --- | --- |
| urocortin (DNPSLSIDLTFHLLRTLLELARTQSQRERAEQNRIIFDSV; ends and bridges not checked; UniProt P55089 83-122, looked up) [a CRF-related peptide, thought to be the endogenous ligand for CRFR2] | −28.3±2.0 | 90 to 120 | dramatic decrease | ~40 | no measurable responses; also recorded: no response | remarkable muted response | −3.5 | – |
| astressin | – | – | – | – | – | – | – | Little hair growth |
